Article PMC8896928, “Preparation, Characterization, and Preliminary Imaging Study of [^188Re]Re-Ibandronate as a Novel Theranostic Radiopharmaceutical for Bone Metastasis” (Contrast Media & Molecular Imaging, 2022)
Like-named read-outs stand apart in the source and are kept apart here.

Key:
[1] = tested on: Kunming mice
Method: Sixteen Kunming mice were randomly divided into four groups (equal number of males and females): normal control group and low-, middle-, and high-dose [^188Re]Re-IBA groups. The control group was injected with 0.9% NaCl, and the experimental groups were injected with [^188Re]Re-IBA solution of 3.7 MBq, 18.5 MBq, and 37 MBq, respectively. The body weight and general condition of the mice in each group were measured. After 4 weeks, the blood of the mice in each group was drawn for routine blood examination and liver and kidney function. A pathological examination of important tissue and organs was performed.
SPSS 26.0 was used for statistical analysis, and the quantitative data were expressed as mean ± standard deviation ( χ¯ ± s). In the toxicity test, repeated-measures analysis of variance was used to compare the body weight of mice in each group. P < 0.05 was considered statistically significant.

[2] = tested on: nude mice of bone metastasis model (PC-3, MDA-MB-231, left tibia)
Method: The nude mice of the bone metastasis model were established by tibial bone marrow injection. The specific methods were as follows: 25 μL of prostate cancer PC-3 and breast cancer MDA-MB-231 cell culture medium were injected into the left tibial bone marrow cavity of healthy male and female nude mice, respectively. At approximately 3-4 weeks after inoculation, they were scanned by microcomputed tomography (CT, SIEMENS InveonTM, Munich, Germany) to determine the condition of the model. […] Bone metastases were initially evaluated by CT and confirmed by pathology after the completion of related studies.
Ten PC-3 and ten MDA-MB-231 nude mice with bone metastasis were randomly divided into five groups. The mice were sacrificed by CO2 asphyxiation at 1 h, 3 h, 6 h, 24 h, and 48 h. The important tissue and organ samples were collected for the biodistribution study.

[3] = Bone imaging of New Zealand rabbits (SPECT); details: New Zealand rabbit, 100 MBq
Method: The New Zealand rabbit was anesthetized by intraperitoneal injection of 2% pentobarbital sodium (40 mg/kg). Then, 100 MBq [^188Re]Re-IBA was injected. Bone imaging was performed at different time points (acquisition equipment: American GE Infinia T4 double probe single-photon emission computed tomography, high energy collimator; scanning parameters: energy peak: 155 keV, posture: supine position, matrix: 128 × 128, and window width: ±10%). Following image acquisition, the images were processed by using the software of the postprocessing workstation.

CCCCCN(C)CCC1(O)P(=O)(O)[O][188Re]2([OH])([OH])([O]P1(=O)O)[O]P(=O)(O)C(O)(CCN(C)CCCCC)P(=O)(O)[O]2 (centres unmarked) [[^188Re]Re-IBA]
Pathology of important tissues and organs vs normal control ([1]; 3.7, 18.5, 37 MBq, 4 weeks): no abnormal pathological changes | Routine blood and liver and kidney function examination (mean values) ([1]; 3.7, 18.5, 37 MBq, 4 weeks): within the normal reference range | Adverse reactions ([1]; 3.7, 18.5, 37 MBq, within 4 weeks): no adverse reactions | Body weight vs other groups ([1]; high-dose group 37 MBq, 4 weeks): inhibited the weight gain of mice to a certain extent | Body weight vs control group ([1]; low-dose group 3.7 MBq, 4 weeks): no significant difference in weight | Body weight vs control group ([1]; medium-dose group 18.5 MBq, 4 weeks): no significant difference in weight | %ID/g Blood ([2]; 1 h): 1.704 ± 0.348 %ID/g | %ID/g Brain ([2]; 1 h): 0.098 ± 0.046 %ID/g | %ID/g CB (contralateral bone) ([2]; 1 h): 9.331 ± 0.541 %ID/g | %ID/g CS (contralateral muscle) ([2]; 1 h): 0.578 ± 0.043 %ID/g | %ID/g Gonad ([2]; 1 h): 0.439 ± 0.162 %ID/g | %ID/g Heart ([2]; 1 h): 0.595 ± 0.099 %ID/g | %ID/g Kidney ([2]; 1 h): 6.004 ± 0.523 %ID/g | %ID/g Liver ([2]; 1 h): 1.236 ± 0.219 %ID/g | %ID/g Lung ([2]; 1 h): 1.135 ± 0.209 %ID/g | %ID/g MB (model bone) ([2]; 1 h): 8.329 ± 0.329 %ID/g | %ID/g Small intestine ([2]; 1 h): 0.718 ± 0.073 %ID/g | %ID/g Spleen ([2]; 1 h): 0.530 ± 0.124 %ID/g | %ID/g Stomach ([2]; 1 h): 3.056 ± 0.321 %ID/g | %ID/g Thyroid gland ([2]; 1 h): 0.625 ± 0.309 %ID/g | CB/CS ratio ([2]; 1 h): 16.144 | CB/heart ratio ([2]; 1 h): 15.682 | CB/liver ratio ([2]; 1 h): 7.549 | MB/CB ratio ([2]; 1 h): 0.893 | MB/CS ratio ([2]; 1 h): 14.411 | MB/heart ratio ([2]; 1 h): 14.003 | MB/liver ratio ([2]; 1 h): 6.738 | %ID/g Blood ([2]; 3 h): 0.531 ± 0.092 %ID/g | %ID/g Brain ([2]; 3 h): 0.082 ± 0.017 %ID/g | %ID/g CB (contralateral bone) ([2]; 3 h): 7.717 ± 4.349 %ID/g | %ID/g CS (contralateral muscle) ([2]; 3 h): 0.524 ± 0.172 %ID/g | %ID/g Gonad ([2]; 3 h): 0.231 ± 0.068 %ID/g | %ID/g Heart ([2]; 3 h): 0.326 ± 0.175 %ID/g | %ID/g Kidney ([2]; 3 h): 2.591 ± 1.120 %ID/g | %ID/g Liver ([2]; 3 h): 0.431 ± 0.312 %ID/g | %ID/g Lung ([2]; 3 h): 0.298 ± 0.250 %ID/g | %ID/g MB (model bone) ([2]; 3 h): 5.922 ± 2.126 %ID/g | %ID/g Small intestine ([2]; 3 h): 0.404 ± 0.047 %ID/g | %ID/g Spleen ([2]; 3 h): 0.227 ± 0.141 %ID/g | %ID/g Stomach ([2]; 3 h): 2.064 ± 0.207 %ID/g | %ID/g Thyroid gland ([2]; 3 h): 0.282 ± 0.149 %ID/g | CB/CS ratio ([2]; 3 h): 14.731 | CB/heart ratio ([2]; 3 h): 23.637 | CB/liver ratio ([2]; 3 h): 17.896 | MB/CB ratio ([2]; 3 h): 0.767 | MB/CS ratio ([2]; 3 h): 11.305 | MB/heart ratio ([2]; 3 h): 18.139 | MB/liver ratio ([2]; 3 h): 13.734 | %ID/g Blood ([2]; 6 h): 0.302 ± 0.092 %ID/g | %ID/g Brain ([2]; 6 h): 0.042 ± 0.042 %ID/g | %ID/g CB (contralateral bone) ([2]; 6 h): 7.662 ± 2.934 %ID/g | %ID/g CS (contralateral muscle) ([2]; 6 h): 0.153 ± 0.083 %ID/g | %ID/g Gonad ([2]; 6 h): 0.106 ± 0.022 %ID/g | %ID/g Heart ([2]; 6 h): 0.183 ± 0.097 %ID/g | %ID/g Kidney ([2]; 6 h): 2.587 ± 0.126 %ID/g | %ID/g Liver ([2]; 6 h): 0.368 ± 0.054 %ID/g | %ID/g Lung ([2]; 6 h): 0.257 ± 0.030 %ID/g | %ID/g MB (model bone) ([2]; 6 h): 8.417 ± 1.820 %ID/g | %ID/g Small intestine ([2]; 6 h): 0.242 ± 0.118 %ID/g | %ID/g Spleen ([2]; 6 h): 0.176 ± 0.029 %ID/g | %ID/g Stomach ([2]; 6 h): 1.176 ± 0.190 %ID/g | %ID/g Thyroid gland ([2]; 6 h): 0.354 ± 0.217 %ID/g | CB/CS ratio ([2]; 6 h): 50.044 | CB/heart ratio ([2]; 6 h): 41.876 | CB/liver ratio ([2]; 6 h): 20.818 | MB/CB ratio ([2]; 6 h): 1.099 | MB/CS ratio ([2]; 6 h): 54.970 | MB/heart ratio ([2]; 6 h): 45.999 | MB/liver ratio ([2]; 6 h): 22.867 | %ID/g Blood ([2]; 24 h): 0.045 ± 0.020 %ID/g | %ID/g Brain ([2]; 24 h): 0.037 ± 0.020 %ID/g | %ID/g CB (contralateral bone) ([2]; 24 h): 4.413 ± 2.225 %ID/g | %ID/g CS (contralateral muscle) ([2]; 24 h): 0.081 ± 0.050 %ID/g | %ID/g Gonad ([2]; 24 h): 0.069 ± 0.018 %ID/g | %ID/g Heart ([2]; 24 h): 0.052 ± 0.027 %ID/g | %ID/g Kidney ([2]; 24 h): 0.640 ± 0.175 %ID/g | %ID/g Liver ([2]; 24 h): 0.089 ± 0.027 %ID/g | %ID/g Lung ([2]; 24 h): 0.101 ± 0.038 %ID/g | %ID/g MB (model bone) ([2]; 24 h): 6.403 ± 0.247 %ID/g | %ID/g Small intestine ([2]; 24 h): 0.049 ± 0.003 %ID/g | %ID/g Spleen ([2]; 24 h): 0.066 ± 0.024 %ID/g | %ID/g Stomach ([2]; 24 h): 0.192 ± 0.092 %ID/g | %ID/g Thyroid gland ([2]; 24 h): 0.082 ± 0.030 %ID/g | CB/CS ratio ([2]; 24 h): 54.620 | CB/heart ratio ([2]; 24 h): 85.157 | CB/liver ratio ([2]; 24 h): 49.848 | MB/CB ratio ([2]; 24 h): 1.451 | MB/CS ratio ([2]; 24 h): 79.255 | MB/heart ratio ([2]; 24 h): 123.563 | MB/liver ratio ([2]; 24 h): 72.330 | %ID/g Blood ([2]; 48 h): 0.021 ± 0.008 %ID/g | %ID/g Brain ([2]; 48 h): 0.021 ± 0.009 %ID/g | %ID/g CB (contralateral bone) ([2]; 48 h): 4.737 ± 0.863 %ID/g | %ID/g CS (contralateral muscle) ([2]; 48 h): 0.041 ± 0.022 %ID/g | %ID/g Gonad ([2]; 48 h): 0.028 ± 0.001 %ID/g | %ID/g Heart ([2]; 48 h): 0.035 ± 0.013 %ID/g | %ID/g Kidney ([2]; 48 h): 0.121 ± 0.034 %ID/g | %ID/g Liver ([2]; 48 h): 0.044 ± 0.013 %ID/g | %ID/g Lung ([2]; 48 h): 0.047 ± 0.005 %ID/g | %ID/g MB (model bone) ([2]; 48 h): 6.503 ± 0.010 %ID/g | %ID/g Small intestine ([2]; 48 h): 0.030 ± 0.018 %ID/g | %ID/g Spleen ([2]; 48 h): 0.022 ± 0.013 %ID/g | %ID/g Stomach ([2]; 48 h): 0.027 ± 0.019 %ID/g | %ID/g Thyroid gland ([2]; 48 h): 0.020 ± 0.010 %ID/g | CB/CS ratio ([2]; 48 h): 115.161 | CB/heart ratio ([2]; 48 h): 133.599 | CB/liver ratio ([2]; 48 h): 106.617 | MB/CB ratio ([2]; 48 h): 1.373 | MB/CS ratio ([2]; 48 h): 158.088 | MB/heart ratio ([2]; 48 h): 183.399 | MB/liver ratio ([2]; 48 h): 146.359 | Elimination route of most of the activity [3]: through the kidneys | Bone imaging, tracer distribution ([3]; 20 min after the injection): obvious accumulation in bones and mild tracer uptake in soft tissue
